In the supplement of paper PMC10307832 one finds relative viability data, which are given here for 9 cell lines.

Experiment in all cases: relative viability (nuclei count vs DMSO), 5 days (fraction); higher = more cells survive
Compound in test [1]: C1CNCCC1C2=CC(=NN2)C3=CC=NC=C3
Put shortly: (§1)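 Viability was defined as treated-well nuclei divided by vehicle-well nuclei, with the median taken over replicate plates. Cells from lung cancer lines sat overnight at 37 °C in 1536-well plates, received five √10-spaced library-drug doses by pinning on vehicle-anchored plates, and grew 5 days without medium change before one-step fixation, permeabilisation and Hoechst staining, 4× imaging and MetaXpress nuclear counts. Only plates with control CV under 25% and at least one doubling were kept.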

Compound in test [2]: C[C@@H](N)c1ccc(C(=O)Nc2ccnc3[nH]ccc23)cc1
Put shortly: as §1

Compound in the next test: O[C@H]1CC[C@H](Nc2ncc3nc(Nc4c(F)cc(F)cc4F)n([C@H]4CCOC4)c3n2)CC1 [Tanzisertib]
In outline: as §1

On to HCC-366, for which the relative viability was 0.969 in test [1] (0.08 µM); 0.995 in test [1] (0.8 µM); 1.01 in test [1] (2.53 µM); 0.999 in test [1] (8 µM); 1.01 in test [2] (0.04 µM); 1.04 in test [2] (0.1265 µM). Also, the relative viability in test [2] (0.4 µM) was determined as 1.09; in test [2] (4 µM), 1.03; in the test with Tanzisertib (0.08 µM), 0.981; in the test with Tanzisertib (0.253 µM) it was 1.03; in the test with Tanzisertib (0.8 µM), 1.01; with Tanzisertib (2.53 µM) it was 0.993. In addition, in the test with Tanzisertib (8 µM), the relative viability amounted to 0.487.

As for HCC-827, the relative viability in test [1] (0.08 µM) was determined as 1.05; in test [1] (0.8 µM), 1.04; in test [1] (2.53 µM) it was 1.06; in test [1] (8 µM) it was 1.01; in test [2] (0.04 µM) it was 0.901; in test [2] (0.1265 µM) it was 1.13. The relative viability was found to be 1.05 in test [2] (0.4 µM); 1.05 in test [2] (1.265 µM); 0.938 in test [2] (4 µM); 1.07 with Tanzisertib (0.08 µM); 1.05 with Tanzisertib (0.253 µM); 1.03 in the test with Tanzisertib (0.8 µM). In addition, the relative viability came out at 1.02 in the test with Tanzisertib (2.53 µM) and 0.663 in the test with Tanzisertib (8 µM).

In the case of HOP-62, the relative viability stood at 1.09 in test [1] (0.08 µM); 1.11 in test [1] (0.8 µM); 1.05 in test [1] (2.53 µM); 1.02 in test [1] (8 µM); 0.957 in test [2] (0.04 µM); 0.949 in test [2] (0.1265 µM). The relative viability came out at 1.03 in test [2] (0.4 µM); 0.884 in test [2] (1.265 µM); 0.899 in test [2] (4 µM); 1.1 with Tanzisertib (0.08 µM); 1.03 with Tanzisertib (0.253 µM); 1 with Tanzisertib (0.8 µM). The results for the relative viability in the test with Tanzisertib (2.53 µM) and in the test with Tanzisertib (8 µM) were 1.12 and 1.03, respectively.

With IA-LM, the relative viability in test [1] (0.08 µM) was 1; in test [1] (0.8 µM), 1.01; in test [1] (2.53 µM), 0.996; in test [1] (8 µM), 1.02; in test [2] (0.04 µM), 1.13; in test [2] (0.1265 µM), 1.1. Moreover, the relative viability was 1.4 in test [2] (0.4 µM); 1.16 in test [2] (1.265 µM); 1.12 in test [2] (4 µM); 1.08 in the test with Tanzisertib (0.08 µM); 0.989 with Tanzisertib (0.253 µM); 0.989 in the test with Tanzisertib (0.8 µM). Besides, the relative viability was 0.96 with Tanzisertib (2.53 µM) and 0.94 with Tanzisertib (8 µM).

Consider LC-2-ad, for which the relative viability in test [1] (0.08 µM) came to 0.978; in test [1] (0.8 µM), 1.09; in test [1] (2.53 µM), 1; in test [1] (8 µM), 0.964; in test [2] (0.04 µM) it was 0.916; in test [2] (0.1265 µM), 0.916. Besides, the relative viability in test [2] (0.4 µM) is 1.02; in test [2] (1.265 µM) it was 0.719; in test [2] (4 µM), 0.838; in the test with Tanzisertib (0.08 µM) it was 1.1; with Tanzisertib (0.253 µM), 1.03; in the test with Tanzisertib (0.8 µM) it was 1.09. For the same cell line, the relative viability stood at 1.03 in the test with Tanzisertib (2.53 µM) and 0.506 with Tanzisertib (8 µM).

In the case of LCLC-97TM1, the relative viability is 1.05 in test [1] (0.08 µM); 0.884 in test [1] (0.8 µM); 1.33 in test [1] (2.53 µM); 0.947 in test [1] (8 µM); 1.18 in test [2] (0.04 µM); 0.868 in test [2] (0.1265 µM). Also, the relative viability in test [2] (0.4 µM) stood at 1.16; in test [2] (1.265 µM), 0.843; in test [2] (4 µM) it was 0.983; with Tanzisertib (0.08 µM), 1.03; in the test with Tanzisertib (0.253 µM), 0.997; in the test with Tanzisertib (0.8 µM), 1.03. For the same cell line, the relative viability with Tanzisertib (2.53 µM) worked out at 0.941; in the test with Tanzisertib (8 µM) it was 0.59.

In the case of LCLC-103H, the relative viability in test [1] (0.08 µM) was 1.06; in test [1] (0.8 µM), 0.873; in test [1] (2.53 µM) it was 0.919; in test [1] (8 µM), 0.98; in test [2] (0.04 µM) it was 1.01; in test [2] (0.1265 µM) it was 0.964. The relative viability is 0.971 in test [2] (0.4 µM); 0.917 in test [2] (1.265 µM); 0.81 in test [2] (4 µM); 1.1 with Tanzisertib (0.08 µM); 1.05 in the test with Tanzisertib (0.253 µM); 1.12 with Tanzisertib (0.8 µM). Moreover, the relative viability was found to be 1 with Tanzisertib (2.53 µM) and 1.04 with Tanzisertib (8 µM).

For LK-2, the relative viability in test [1] (0.08 µM) is 0.729; in test [1] (0.8 µM), 1.02; in test [1] (2.53 µM), 1.07; in test [1] (8 µM) it was 1.05; in test [2] (0.04 µM), 1.32; in test [2] (0.1265 µM) it was 0.863. Besides, the relative viability in test [2] (0.4 µM) amounted to 1.04; in test [2] (1.265 µM) it was 0.929; in test [2] (4 µM) it was 1.21; with Tanzisertib (0.08 µM), 1.16; in the test with Tanzisertib (0.253 µM), 1.06; with Tanzisertib (0.8 µM) it was 1. Also, the relative viability in the test with Tanzisertib (2.53 µM) and with Tanzisertib (8 µM) was 1.03 throughout.

As for LOU-NH91, the relative viability was determined as 1.1 in test [1] (0.08 µM); 1.02 in test [1] (0.8 µM); 1.05 in test [1] (2.53 µM); 0.945 in test [1] (8 µM); 0.811 in test [2] (0.04 µM); 0.972 in test [2] (0.1265 µM). Also, the relative viability was found to be 0.861 in test [2] (0.4 µM); 0.607 in test [2] (1.265 µM); 0.755 in test [2] (4 µM); 0.995 with Tanzisertib (0.08 µM); 0.988 with Tanzisertib (0.253 µM); 0.909 with Tanzisertib (0.8 µM). The relative viability stood at 0.995 in the test with Tanzisertib (2.53 µM) and 0.657 in the test with Tanzisertib (8 µM).
